The text below walks through data of US20120015029A1, “DIRECT COMPRESSION FORMULATION AND PROCESS” (priority 2005, published 2012).

A short description of series [1]: Water sorption/desorption isotherm (dynamic vapor sorption, DVS-1). The note with it: 25° C., 85% RH.
Series [2] in a line: Pharmacokinetic drug-drug interaction study vildagliptin 100 mg qd and metformin 1000 mg qd in patients with type 2 diabetes. In kind it is in vivo, human. The note with it: type 2 diabetes patients, steady state, vildagliptin 100 mg qd FMI tablets alone or with metformin 1000 mg qd, 5 days. The method, then:
Subjects are given an end-of-study evaluation on the last day of period 2 (Day 20). For all treatment periods, subjects fasted for a minimum of 10 hours pre-dose to 4 hours post-dose. Subjects are considered to have completed the study when all safety and pharmacokinetic evaluations have been completed.
The pharmacokinetic profiles are illustrated in FIG. 5.

With `N#C[C@@H]1CCCN1C(=O)CNC12CC3CC(CC(O)(C3)C1)C2` [Crystalline vildagliptin Form A, (S)-1-[(3-hydroxy-1-adamantyl)amino]acetyl-2-cyano-pyrrolidine], in series [1], the hygroscopicity entry is on record as “only very slightly hygroscopic” and the moisture gain is on record as 0.9%. The matching figures for `N#C[C@@H]1CCCN1C(=O)CNC12CC3CC(CC(O)(C3)C1)C2` [vildagliptin amorphous form, (S)-1-[(3-hydroxy-1-adamantyl)amino]acetyl-2-cyano-pyrrolidine]: “hygroscopic” and 4.2%. As to `N#C[C@@H]1CCCN1C(=O)CNC12CC3CC(CC(O)(C3)C1)C2` [vildagliptin, (S)-1-[(3-hydroxy-1-adamantyl)amino]acetyl-2-cyano-pyrrolidine], in series [2], the Tmax median is listed as 1.00 h.
